Here are results for 29 compounds from patent publication US20240150293A1, “SPIROCYCLOHEXANE DERIVATIVES, PHARMACEUTICAL COMPOSITIONS CONTAINING THEM AND THEIR USES AS ANTI-APOPTOTIC INHIBITORS” (LES LABORATOIRES SERVIER, priority 2021, published 2024).

Chain of Mcl-1 protein (Q07820 whole entry): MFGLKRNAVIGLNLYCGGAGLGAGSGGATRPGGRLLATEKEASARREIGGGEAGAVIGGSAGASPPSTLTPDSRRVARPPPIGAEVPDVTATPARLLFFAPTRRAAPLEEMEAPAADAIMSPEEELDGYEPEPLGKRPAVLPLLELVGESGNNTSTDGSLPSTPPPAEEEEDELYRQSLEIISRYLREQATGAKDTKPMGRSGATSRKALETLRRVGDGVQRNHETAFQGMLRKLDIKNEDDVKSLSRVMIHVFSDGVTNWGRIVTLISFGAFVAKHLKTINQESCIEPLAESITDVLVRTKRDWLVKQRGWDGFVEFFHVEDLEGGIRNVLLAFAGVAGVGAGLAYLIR

The target of the experiment is Mcl-1 protein (UniProtKB Q07820) (Homo sapiens (Human), UniProt Q07820). Nature of the experiment: Inhibition of Mcl-1 by the fluorescence polarisation assay (Example A, Method A). In kind it is binding. The settings on record: fluorescence polarization assay. Put shortly:
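Protein (5 nM) and fluorescein-tagged peptide tracer (1 nM) incubated with 11-point compound series for 2 h at room temperature in HEPES/NaCl/Tween 20 buffer, pH 7.4, 5% DMSO. Displacement read as decrease in polarisation; IC50 fitted by 4-parameter logistic, converted to Ki (cKi or eKi).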
`CC[C@H](COc1cccnc1)C[C@H]1Cc2ccccc2[C@]12CC[C@@](Nc1cccc(Cl)c1)(C(=O)O)CC2` [Example 540, (1r,2′S,4S)-4-(3-chloroanilino)-2′-[(2S)-2-{[(pyridin-3-yl)oxy]methyl}butyl]-2′,3′-dihydrospiro[cyclohexane-1,1′-indene]-4-carboxylic acid]: the Ki turned out to be 185 nM.
The result for `O=C(O)[C@]1(Nc2cccc(Cl)c2)CC[C@@]2(CC1)c1ccccc1CC2CCCOc1ccncc1F` (some centres unmarked) [Example 432, (1r,4r)-4-(3-chloroanilino)-2′-{3-[(3-fluoropyridin-4-yl)oxy]propyl}-2′,3′-dihydrospiro[cyclohexane-1,1′-indene]-4-carboxylic acid] reads 38.9 nM.
The result for `O=C(O)[C@]1(Nc2cccc(Cl)c2)CC[C@@]2(CC1)c1ccccc1CC2c1cccc(Oc2ccncc2)c1` (single isomer, unassigned) [Example 376, (1r,4r)-4-(3-chloroanilino)-2′-{3-[(pyridin-4-yl)oxy]phenyl}-2′,3′-dihydrospiro[cyclohexane-1,1′-indene]-4-carboxylic acid] reads 267 nM; that for `O=C(O)[C@]1(Nc2cccc(Cl)c2)CC[C@]2(CC1)C(I)=Cc1ccccc12` [Example 76, (1s,4s)-4-(3-chloroanilino)-2′-iodospiro[cyclohexane-1,1′-indene]-4-carboxylic acid], 284 nM; that for `O=C(O)[C@]1(Nc2cccc(Cl)c2)CC[C@@]2(CC1)c1ccccc1C[C@@H]2c1cccc(OCc2ccccc2)c1` [Example 333, (1r,2′R,4R)-2′-[3-(benzyloxy)phenyl]-4-(3-chloroanilino)-2′,3′-dihydrospiro[cyclohexane-1,1′-indene]-4-carboxylic acid], 13200 nM.
Next, `O=C(O)[C@]1(Nc2cccc(Cl)c2)CC[C@@]2(CC1)c1ccccc1CC2CCCOC1CCOc2ccccc21` (some centres unmarked) [Example 471, (1r,4r)-4-(3-chloroanilino)-2′-{3-[(3,4-dihydro-2H-1-benzopyran-4-yl)oxy]propyl}-2′,3′-dihydrospiro[cyclohexane-1,1′-indene]-4-carboxylic acid]: 620 nM; `COc1cc(OC)cc(C2=Cc3ccccc3[C@]23CC[C@@](Nc2cccc(Cl)c2)(C(=O)O)CC3)c1` [Example 308, (1s,4s)-4-(3-chloroanilino)-2′-(3,5-dimethoxyphenyl)spiro[cyclohexane-1,1′-indene]-4-carboxylic acid]: 2930 nM; `O=C(O)C1(Nc2cccc(Br)c2)CCC2(CC1)C(c1ccc(Cl)c(Cl)c1)=Cc1ccccc12` (single isomer, unassigned) [Example 233, 4-(3-bromoanilino)-2′-(3,4-dichlorophenyl)spiro[cyclohexane-1,1′-indene]-4-carboxylic acid]: 44000 nM.
`COc1cccc(C)c1C1=Cc2ccccc2[C@]12CC[C@@](Nc1cccc(Cl)c1)(C(=O)O)CC2` [Example 248, (1s,4s)-4-(3-chloroanilino)-2′-(2-methoxy-6-methylphenyl)spiro[cyclohexane-1,1′-indene]-4-carboxylic acid]: the Ki turned out to be 28200 nM.
Next, `O=C(O)[C@]1(Nc2cccc(Cl)c2)CC[C@]2(CC1)C(C#CCCOc1ccnc3ccsc13)=Cc1ccccc12` [Example 195, (1s,4s)-4-(3-chloroanilino)-2′-{4-[(thieno[3,2-b]pyridin-7-yl)oxy]but-1-yn-1-yl}spiro[cyclohexane-1,1′-indene]-4-carboxylic acid]: 266 nM; `O=C(O)[C@]1(Nc2ccccc2)CC[C@]2(CC1)C(CCCOc1ccnc3ccsc13)=Cc1ccccc12` [Example 455, (1r,4r)-4-anilino-2′-{3-[(thieno[3,2-b]pyridin-7-yl)oxy]propyl}spiro[cyclohexane-1,1′-indene]-4-carboxylic acid]: 1030 nM; `Cc1cc(OCCCC2Cc3ccccc3[C@]23CC[C@@](Nc2cccc(Cl)c2)(C(=O)O)CC3)ccn1` (some centres unmarked) [Example 457, (1r,4r)-4-(3-chloroanilino)-2′-{3-[(2-methylpyridin-4-yl)oxy]propyl}-2′,3′-dihydrospiro[cyclohexane-1,1′-indene]-4-carboxylic acid]: 129 nM.
In the case of `O=C(O)[C@]1(Nc2cccc(Br)c2)CC[C@]2(CC1)C(Br)=Cc1ccccc12` [Example 78, (1s,4s)-2′-bromo-4-(3-bromoanilino)spiro[cyclohexane-1,1′-indene]-4-carboxylic acid], the Ki is 87.6 nM.
As for `O=C(O)[C@]1(Nc2cccc(Cl)c2)CC[C@@]2(CC1)c1ccccc1CC2CCCOc1ccccc1Cl` (some centres unmarked) [Example 431, (1r,4r)-4-(3-chloroanilino)-2′-[3-(2-chlorophenoxy)propyl]-2′,3′-dihydrospiro[cyclohexane-1,1′-indene]-4-carboxylic acid], the Ki was 138 nM.
The result for `CC(C)c1cncnc1OCCCC1Cc2ccccc2[C@]12CC[C@@](Nc1cccc(Cl)c1)(C(=O)O)CC2` (mixture of isomers) [Example 461, (1r,4r)-4-(3-chloroanilino)-2′-(3-{[5-(propan-2-yl)pyrimidin-4-yl]oxy}propyl)-2′,3′-dihydrospiro[cyclohexane-1,1′-indene]-4-carboxylic acid] reads 325 nM; that for `CN1c2ccc(C3CC3)cc2[C@]2(CC[C@](Nc3cccc(Br)c3)(C(=O)O)CC2)C1=O` [Example 15, (1r,4r)-4-(3-bromoanilino)-5′-cyclopropyl-1′-methyl-2′-oxo-1′,2′-dihydrospiro[cyclohexane-1,3′-indole]-4-carboxylic acid], 11500 nM.
Next, `CN1c2ccc(-c3ccccc3)cc2[C@]2(CC[C@](Nc3cccc(Br)c3)(C(=O)O)CC2)C1=O` [Example 10, (1r,4r)-4-(3-bromoanilino)-1′-methyl-2′-oxo-5′-phenyl-1′,2′-dihydrospiro[cyclohexane-1,3′-indole]-4-carboxylic acid]: 10700 nM.
Next, `Cn1cc(C2Cc3ccccc3[C@]23CC[C@](Nc2cccc(Br)c2)(C(=O)O)CC3)cn1` (some centres unmarked) [Example 213, (1s,4s)-4-(3-bromoanilino)-2′-(1-methyl-1H-pyrazol-4-yl)-2′,3′-dihydrospiro[cyclohexane-1,1′-indene]-4-carboxylic acid]: 87300 nM; `COc1ccc([C@@H]2Cc3ccccc3[C@]23CC[C@@](Nc2cccc(Cl)c2)(C(=O)O)CC3)cc1` [Example 240, (1r,2′S,4S)-4-(3-chloroanilino)-2′-(4-methoxyphenyl)-2′,3′-dihydrospiro[cyclohexane-1,1′-indene]-4-carboxylic acid]: 217 nM; `O=C(O)[C@]1(Nc2cccc(Cl)c2)CC[C@]2(CC1)C(/C=C/CC1CCCC1)=Cc1ccccc12` [Example 152, (1r,4r)-4-(3-chloroanilino)-2′-[(1E)-3-cyclopentylprop-1-en-1-yl]spiro[cyclohexane-1,1′-indene]-4-carboxylic acid]: 609 nM.
Regarding `C[C@H]1c2ccccc2[C@]2(CC[C@@](Nc3cccc(Cl)c3)(C(=O)O)CC2)[C@H]1C` (single isomer, unassigned) [Example 208, (1r,2′R*,3'S*,4r)-4-(3-chloroanilino)-2′,3′-dimethyl-2′,3′-dihydrospiro[cyclohexane-1,1′-indene]-4-carboxylic acid], the Ki was determined as 31600 nM.
Next, `O=C(O)[C@]1(Nc2cccc(Cl)c2)CC[C@@]2(CC1)c1ccccc1CC2C1CCCC1` (single isomer, unassigned) [Example 91, (1r,4r)-4-(3-chloroanilino)-2′-cyclopentyl-2′,3′-dihydrospiro[cyclohexane-1,1′-indene]-4-carboxylic acid]: 1430 nM; `COc1ccc2c(c1)[C@]1(CC[C@@](Nc3cccc(Cl)c3)(C(=O)O)CC1)C(c1cccc(C)c1)=C2` [Example 366, (1r,4r)-4-(3-chloroanilino)-6′-methoxy-2′-(3-methylphenyl)spiro[cyclohexane-1,1′-indene]-4-carboxylic acid]: 1390 nM.
Next, `Cc1c[nH]c2nccc(OCCCC3Cc4ccccc4[C@]34CC[C@@](Nc3cccc(Cl)c3)(C(=O)O)CC4)c12` (some centres unmarked) [Example 458, (1r,4r)-4-(3-chloroanilino)-2′-{3-[(3-methyl-1H-pyrrolo[2,3-b]pyridin-4-yl)oxy]propyl}-2′,3′-dihydrospiro[cyclohexane-1,1′-indene]-4-carboxylic acid]: 110 nM.
The result for `O=C(O)[C@]1(Nc2cccc(Cl)c2)CC[C@]2(CC1)C(c1cccc3occc13)=Cc1ccccc12` [Example 340, (1s,4s)-2′-(1-benzofuran-4-yl)-4-(3-chloroanilino)spiro[cyclohexane-1,1′-indene]-4-carboxylic acid] reads 921 nM; that for `COc1cc(OCCC2Cc3ccccc3[C@]23CC[C@@](Nc2cccc(Cl)c2)(C(=O)O)CC3)ccn1` (some centres unmarked) [Example 174, (1r,4r)-4-(3-chloroanilino)-2′-{2-[(2-methoxypyridin-4-yl)oxy]ethyl}-2′,3′-dihydrospiro[cyclohexane-1,1′-indene]-4-carboxylic acid], 138 nM.
On to `O=C(O)[C@]1(Nc2cccc(Br)c2)CC[C@@]2(CC1)C(C#CCOc1ccccc1)=Cc1ccccc12` [Example 165, (1r,4r)-4-(3-bromoanilino)-2′-(3-phenoxyprop-1-yn-1-yl)spiro[cyclohexane-1,1′-indene]-4-carboxylic acid], for which the Ki worked out at 90400 nM.
`CC1CCc2nccc(OC[C@H](C)CC3Cc4ccccc4[C@]34CC[C@@](Nc3cccc(Cl)c3)(C(=O)O)CC4)c21` (single isomer, unassigned) [Example 601]: the Ki came out at 32.8 nM.
As for `COc1ccc(C2Cc3ccccc3[C@]23CC[C@@](Nc2ccccc2)(C(=O)O)CC3)c(C)c1` (single isomer, unassigned) [Example 257, (1r,4r)-4-anilino-2′-(4-methoxy-2-methylphenyl)-2′,3′-dihydrospiro[cyclohexane-1,1′-indene]-4-carboxylic acid], the Ki was 40400 nM.
